Test results taken from PMC10811918, “Mechanisms of Bushen Tiaoxue Granules against controlled ovarian hyperstimulation-induced abnormal morphology of endometrium based on network pharmacology” (Journal of Ovarian Research, 2024).
Like-named read-outs stand apart in the source and are kept apart here.

What was measured:
[1] = test system: Human endometrial stromal cells (hESC); assay: Cytotoxicity on hESC (CCK8 cell viability); type: cell-based; conditions: for IC50: read-out: IC50 (inhibition of hESC proliferation)
Method: Human endometrial stromal cells (hESC) were obtained from the Meisen Chinese Tissue Culture Collections (Zhejiang, China). The basal culture medium for hESC comprised DMEM/F12 supplemented with 10% fetal bovine serum (FBS) and 1% penicillin–streptomycin. The culture environment was maintained at 5% CO2 and 37 °C. […] Six gradients of concentrations were established to determine the IC50 of these compounds.
(§1) D-Galactose (D-Gal) was procured from Solabio Company (Beijing, China) and prepared in DMEM/F12 at a concentration of 200 mM as the modeling drug. hESC were uniformly seeded at 4 × 10^3 cells/well in a 96-well plate with 6 replicates per group, while wells treated only with basal culture medium served as the control group. Following cell adhesion, a 24-h intervention with 200 mM D-Gal was administered, followed by a 24-h culture with the appropriate concentration of natural product selected from the screening. CCK8 solution (Solabio, Beijing, China) was added to the wells and incubated in the culture chamber for 2 h, and absorbance was recorded at 450 nm using a microplate reader (Bio-Rad, USA).
All data in this study were analyzed by SPSS 22.0 software, and the results were presented as mean ± SEM. The one-way ANOVA, followed with Turkey’s test was performed for multiple comparison. p value < 0.05 was considered statistically significant. GraphPad Prism is utilized for calculating IC50 values and organizing graphs.
Previous studies have identified an increased senescent phenotype in endometrial stromal cells post COH, which is unfavorable for decidualization during embryo implantation. D-Gal is a widely recognized mimetic agent causing oxidative stress damage and promoting aging.

mouse embryos = test system: mouse embryos; parameters: method as in PMID 25896022; conditions: cited from earlier work
[2] = test system: hESC with D-Gal-induced damage; assay: Protection against D-Gal-induced damage in hESC (CCK-8); type: cell-based, Human; conditions: 200 mM D-Gal 24 h, then compound 24 h at two concentrations: quercetin 50/25 μM, taxifolin 260/130 μM, kaempferol 400/200 μM, eriodictyol 230/115 μM, isorhamnetin 500/250 μM
Method: as §1
Cell viability was assessed using CCK-8 assay (Fig. 10A).

[3] = Blood drug concentration of kaempferol following BTG administration; type: in vivo, rat; conditions: rats, BTG 3.27 g/kg oral gavage for 3 days, sampling 10 min to 12 h
Source text: Supplementary file 13048_2023_1339_MOESM1_ESM.pdf: Additional file 1: Table S1. Composition of the BTG. Table S2. Identification of chemical components in BTG. Table S3. Affinity of ingredients with potential targets. Figure S1. […] Upon usage, it was sequentially diluted to obtain concentration gradient solutions. Utilizing the same 50 female SD rats as employed in the in vivo experiment, two rats constituted the blank control group, while the remaining 48 rats were divided into treatment groups, each consisting of 6 rats. […] The blood samples were centrifuged at 4°C, 3500 rpm for 10 min, and the supernatant was analyzed. Following the UPLC-MS analysis method described earlier, the peak areas of the analyte and internal standard were recorded to calculate the blood drug concentrations at each time point. […] The serum levels of (A) ALT, (B) AST, (C) CREA, (D) UA, and (E) UREA in each group of rats were measured using microplate assays. […]
stock solution of 200 μg/mL for the mixed control solution. […] The blood samples were centrifuged at 4°C, 3500 rpm for 10 min, and the supernatant was analyzed. Following the UPLC-MS analysis method described earlier, the peak areas of the analyte and internal standard were recorded to calculate the blood drug concentrations at each time point. […]

[4] = cited from earlier work
mice = conditions: dose higher than 800 μg; cited from earlier work
[5] = hESC, six concentration gradients

| Structure (SMILES) | IC50 [1, 5] | improvement of cellular viability damage caused by D-Gal [2] | further results |
| --- | --- | --- | --- |
| O=C[C@H](O)[C@@H](O)[C@@H](O)[C@H](O)CO [D-Gal, D-Galactose, reference compound] | – | – | inhibition at 200000 µM ([1]; hESCs, 200 mM, read-out: inhibition of cell proliferation): ~50% |
| O=C(O)[C@H]1O[C@@H](Oc2cc3oc(-c4ccccc4)cc(=O)c3c(O)c2O)[C@H](O)[C@@H](O)[C@@H]1O [baicalin] | – | – | adhesion rate and implantation rate of mouse embryos (mouse embryos): increase |
| O=C1C[C@@H](c2ccc(O)c(O)c2)Oc2cc(O)cc(O)c21 [eriodictyol] | 233 µM | effective improvement | – |
| COc1cc(-c2oc3cc(O)cc(O)c3c(=O)c2O)ccc1O [isorhamnetin] | > 500 µM | failed to effectively ameliorate | – |
| O=c1c(O)c(-c2ccc(O)cc2)oc2cc(O)cc(O)c12 [kaempferol] | – | effective improvement | IC50 [1]: 399 µM; kaempferol concentration in the blood following BTG administration [3]: sustained detectable concentrations even at 8 h; oral bioavailability [4]: 41.88% |
| CS(=O)(=O)Nc1ccc([N+](=O)[O-])cc1Oc1ccccc1 [nimesulide] | – | – | implantation sites (mice): reduced |
| O=c1c(O)c(-c2ccc(O)c(O)c2)oc2cc(O)cc(O)c12 [quercetin] | – | failed to effectively ameliorate | IC50 [1]: 45.4 µM; oral bioavailability [4]: 46.43% |
| O=C1c2c(O)cc(O)cc2OC(c2ccc(O)c(O)c2)C1O (stereo not shown) [taxifolin] | 263 µM | effective improvement | – |
